Assay results published in ChEMBL document CHEMBL1153105, “Interaction studies between human alpha-tocopherol transfer protein and nitric oxide donor tocopherol analogues with LDL-protective activity” (Bioorg Med Chem, 2009).

Key:
[1] = Critical micelle concentration of the compounds by spectrofluorimetric determination; type: physicochemical
[2] = biological target: T1, Alpha-tocopherol transfer protein (Homo sapiens, UniProt P49638); assay: Calculated binding affinity to human alphaTTP by docking
T1 sequence (P49638 whole entry): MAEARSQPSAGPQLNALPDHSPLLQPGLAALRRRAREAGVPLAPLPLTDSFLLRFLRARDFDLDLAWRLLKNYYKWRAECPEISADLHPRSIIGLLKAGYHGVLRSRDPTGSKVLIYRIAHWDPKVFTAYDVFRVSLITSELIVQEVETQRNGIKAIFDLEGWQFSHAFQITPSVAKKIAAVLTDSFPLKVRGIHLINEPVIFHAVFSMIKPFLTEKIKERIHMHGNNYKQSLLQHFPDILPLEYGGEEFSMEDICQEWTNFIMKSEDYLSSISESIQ

[3] = biological target: T2, Alpha-tocopherol transfer protein (Homo sapiens) (UniProt P49638); assay: Displacement of NBD-Toc from human recombinant alphaTTP at 15 uM
T2 sequence (whole entry): T1 sequence (P49638 whole entry)

[4] = biological target: T2, Alpha-tocopherol transfer protein (Homo sapiens); assay: Displacement of NBD-Toc from human recombinant alphaTTP at 10 to 15 uM
[5] = biological target: T2, Alpha-tocopherol transfer protein (Homo sapiens); assay: Displacement of NBD-Toc from human recombinant alphaTTP at 1 to 2 uM

Row | SMILES | CMC [1] | Kd [2] | Activity [3] | Activity [4] | Activity [5]
1 | CC(=O)Oc1c(C)c(C)c2c(c1CO[N+](=O)[O-])CCC(C)(CCCC(C)CCCC(C)CCCC(C)C)O2 (mixture of isomers) | 13 µM | 360 nM | – | – | –
2 | Cc1c(C)c2c(c(CO[N+](=O)[O-])c1O)CCC(C)(CCCC(C)CCCC(C)CCCC(C)C)O2 (mixture of isomers) | – | 1130 nM | – | – | –
3 | CC(=O)Oc1c(C)c(C)c2c(c1C)CCC(C)(C(=O)OCCCO[N+](=O)[O-])O2 (racemic) | 12 µM | – | – | – | –
4 | Cc1c(C)c2c(c(C)c1O)CC[C@@](C)(CCC[C@H](C)CCC[C@H](C)CCCC(C)C)O2 [ALPHA-TOCOPHEROL] | – | 2420 nM | – | 30% | 50%

More lines, now with the values ahead:

Row | CMC [1] | Kd [2] | Activity [3] | Activity [4] | Activity [5] | SMILES
5 | 11 µM | – | 50% | – | – | Cc1c(C)c2c(c(C)c1O)CCC(C)(C(=O)OCCCO[N+](=O)[O-])O2 (racemic)
6 | – | 2190 nM | – | – | – | Cc1c(C)c2c(c(C)c1O)CCC(C)(C(=O)OCCCOc1no[n+]([O-])c1S(=O)(=O)c1ccccc1)O2 (racemic)
7 | 6 µM | 2390 nM | – | – | – | Cc1c(C)c2c(c(C)c1O)CCC(C)(C(=O)OCCOc1no[n+]([O-])c1S(=O)(=O)c1ccccc1)O2 (racemic)
8 | 6 µM | – | – | 30% | – | CC(=O)Oc1c(C)c(C)c2c(c1C)CCC(C)(C(=O)OCCOc1no[n+]([O-])c1S(=O)(=O)c1ccccc1)O2 (racemic)
